# Experimental data as given in patent publication US7919489B2, “Heterocyclyamide-substituted imidazoles” (Aicuris GmbH & Co. KG, priority 2005, dated 2011).
# Columns and labels:
# HCMV = experiment: Anti-HCMV cytopathogenicity test (inhibition of CPE); format: cell-based, human cytomegalovirus; conditions: for EC50: Human betaherpesvirus 5, 144 h, concentration inhibiting the CPE by 50% vs untreated virus control, HCMV-infected NHDF cells, 6 days
# Method: Anti-HCMV (Anti-Human Cytomegalovirus) Cytopathogenicity Tests The test compounds are employed as 50 millimolar (mM) solutions in dimethyl sulfoxide (DMSO). Ganciclovir, foscarnet and cidofovir are used as reference compounds. After the addition of in each case 2 μl of the 50, 5, 0.5 and 0.05 mM DMSO stock solutions to 98 μl portions of cell culture medium in row […] for duplicate determinations, 1:2 dilutions are carried out with 50 μl portions of medium up to row 11 of the 96-well plate. The wells in rows 1 and 12 each contain 50 μl of medium. Then 150 μl of a suspension of 1×10^4 cells (human prepuce fibroblasts [NHDF]) are pipetted into each of the wells (row 1=cell control) and, in rows 2-12, a mixture of HCMV-infected and uninfected NHDF cells (M.O.I.=0.001-0.002), i.e. 1-2 infected cells per 1000 uninfected cells. Row 12 (without substance) serves as virus control. The final test concentrations are 250-0.0005 μM. The plates are incubated at 37° C./5% CO2 for 6 days, i.e. until all the cells in the virus controls are infected (100% cytopathogenic effect [CPE]). The wells are then fixed and stained by adding a mixture of formalin and Giemsa's dye (30 minutes), washed with double-distilled water and dried in a drying oven at 50° C. The plates are then assessed visually using an overhead microscope (Plaque Multiplier from Technomara). The following data can be acquired from the test plates: EC50 (HCMV)=substance concentration in μM which inhibits the CPE (cytopathic effect) by 50% compared with the untreated virus control; SI (selectivity index)=CC50 (NHDF)/EC50 (HCMV).
# [1] = Anti-HCMV cytopathogenicity test: cytostatic effects on NHDF cells; format: cell-based; conditions: human, NHDF cells (human prepuce fibroblasts), maximum substance concentration with no visible cytostatic effects vs untreated cell control
# Method: Anti-HCMV (Anti-Human Cytomegalovirus) Cytopathogenicity Tests The test compounds are employed as 50 millimolar (mM) solutions in dimethyl sulfoxide (DMSO). Ganciclovir, foscarnet and cidofovir are used as reference compounds. After the addition of in each case 2 μl of the 50, 5, 0.5 and 0.05 mM DMSO stock solutions to 98 μl portions of cell culture medium in row […] for duplicate determinations, 1:2 dilutions are carried out with 50 μl portions of medium up to row 11 of the 96-well plate. The wells in rows 1 and 12 each contain 50 μl of medium. Then 150 μl of a suspension of 1×10^4 cells (human prepuce fibroblasts [NHDF]) are pipetted into each of the wells (row 1=cell control) and, in rows 2-12, a mixture of HCMV-infected and uninfected NHDF cells (M.O.I.=0.001-0.002), i.e. 1-2 infected cells per 1000 uninfected cells. Row 12 (without substance) serves as virus control. The final test concentrations are 250-0.0005 μM. The plates are incubated at 37° C./5% CO2 for 6 days, i.e. until all the cells in the virus controls are infected (100% cytopathogenic effect [CPE]). The wells are then fixed and stained by adding a mixture of formalin and Giemsa's dye (30 minutes), washed with double-distilled water and dried in a drying oven at 50° C. The plates are then assessed visually using an overhead microscope (Plaque Multiplier from Technomara). The following data can be acquired from the test plates: CC50 (NHDF)=maximum substance concentration in μM at which no visible cytostatic effects on the cells are evident by comparison with the untreated cell control;
SMILES,EC50 (HCMV),SI HCMV (selectivity index = CC50 (NHDF)/EC50 (HCMV)) (HCMV),CC50 at 6 days [1]
"Cn1cc(NC(=O)Nc2ccc(OC(F)(F)F)cc2)nc1C(=O)N1CCN(c2ccccn2)CC1 [Example 1, N-{1-Methyl-2-[(4-pyridin-2-ylpiperazin-1-yl)carbonyl]-1H-imidazol-4-yl}-N′-[4-(trifluoromethoxy)phenyl]urea]",0.003 µM,14500,43.5 µM
"Cc1ccc(N2CCN(C(=O)c3nc(NC(=O)Nc4ccc(OC(F)(F)F)cc4)cn3C)CC2)nc1 [Example 2, N-(1-Methyl-2-{[4-(5-methylpyridin-2-yl)piperazin-1-yl]carbonyl}-1H-imidazol-4-yl)-N′-[4-(trifluoromethoxy)phenyl]urea]",0.00075 µM,14530,10.9 µM
Cc1ccc(N2CCN(C(=O)c3nc(NC(=O)Nc4ccc(OC(F)(F)F)cc4)cn3CC3CC3)CC2)nc1 [Example 32],0.00085 µM,6240,5.3 µM

# More lines, in order of falling EC50 (HCMV), values ahead:
EC50 (HCMV),SMILES,SI HCMV (selectivity index = CC50 (NHDF)/EC50 (HCMV)) (HCMV),CC50 at 6 days [1]
0.0048 µM,Cn1cc(NC(=O)Nc2ccc(OC(F)(F)F)cc2)nc1C(=O)N1CCN(c2ccc(C#N)cn2)CC1 [Example 25],2600,12.5 µM
0.00095 µM,COc1ccc(N2CCN(C(=O)c3nc(NC(=O)Nc4ccc(OC(F)(F)F)cc4)cn3C)CC2)nc1 [Example 29],35790,34 µM
